Data: patent publication US8912200B2, “Alkynyl substituted pyrimidinyl-pyrroles active as kinases inhibitors” (Nerviano Medical Sciences S.R.L., priority 2011, dated 2014)

How the values were obtained:
JAK2 kinase domain = target: T1, JAK2 kinase domain (Homo sapiens, UniProt O60674); assay: Biochemical assay for inhibitors of JAK kinase activity (JAK2, 33P-γ-ATP/dowex resin); settings: JAK2 kinase domain 1 nM, 60 μM ATP
T1 construct: commercially available JAK2 kinase domain; purchased Invitrogen, Eugene, Oreg
Text: Biochemical Assay for Inhibitors of JAK Kinase Activity
Specific JAK2, JAK1 or JAK3 peptide substrates are trans-phosphorylated by JAK kinases in the presence of ATP traced with 33P-γ-ATP. At the end of the phosphorylation reaction, the unreacted ATP, cold and radioactive, is captured by an excess of dowex ion exchange resin that eventually settles by gravity to the bottom of the reaction plate. The supernatant is subsequently withdrawn and transferred into a counting plate that is then evaluated by β-counting.
500 g of wet resin (SIGMA, custom prepared resin DOWEX 1×8 200-400 mesh, 2.5 Kg) are weighed out and diluted 2 to 1 in 150 mM sodium formate, pH 3.00. The resin is allowed to settle down overnight and then the supernatant is discarded. After three washes as above over a couple of days, the resin is allowed to settle and two volumes (with respect to the resin volume) of 150 mM sodium formate buffer are added.
Kinase buffer was composed of 50 mM HEPES pH 7.5 containing 10 mM MgCl2, 2.5 mM DTT, 10 μM Na3VO4 and 0.2 mg/mL BSA.
JAK2 Specific Assay Conditions
The JAK2 kinase assay was run with a final enzyme concentration of 1 nM, in the presence of 60 μM ATP, 3 nM 33P-γ-ATP and 64 μM of substrate BioDBn*306 (Aminoacid sequence: LPLDKDYYVVREPGQ—SEQ ID NO: 1). The peptidic substrate was purchased from American Peptide Company (Sunnyvale, Calif.).
For IC50 determination, test compounds are received as a 1 mM solution in 100% DMSO, distributed into 96 well plates: compounds are then plated into the first column of a microtiter plate (A1 to G1), 100 μL/well.
An automated station for serial dilutions (Biomek FX, Beckman) is used for producing 1:3 dilutions in 100% DMSO, from line A1 to A10, and for all the compounds in the column. Moreover, 4-5 copies of daughter plates are prepared by reformatting 5 μL of this first set of 100% DMSO dilution plates into 384 deep well-plates: one of these plates with the serial dilutions of test compounds will be thawed the day of the experiments, reconstituted at a 3× concentration with water and used in the IC50 determination assays. In a standard experiment, the highest concentration (3×) of all compounds is 30 μM, while the lowest one is 1.5 nM. Each 384 well-plate will contain at least one curve of the standard inhibitor staurosporine and reference wells (total enzyme activity vs. no enzymatic activity) for the Z′ and signal to background evaluation.
384-well plates, V bottom (test plates) are prepared with 5 μL of the compound dilution (3×) and then placed onto a PlateTrak 12 robotized station (Perkin Elmer; the robot has one 384-tip pipetting head for starting the assay plus one 96-tip head for dispensing the resin) together with one reservoir for the Enzyme mix (3×) and one for the ATP mix (3×). At the start of the run, the robot aspirates 5 μL of ATP mix, makes an air gap inside the tips (3 μl) and aspirates 5 μL of JAK2 mix. The following dispensation into the plates plus 3 cycles of mixing, done by the robot itself, starts the kinase reaction. At this point, the correct concentrations are restored for all the reagents. The robot incubates the plates for 60 minutes at room temperature, and then stops the reaction by pipetting 60 μL of dowex resin suspension into the reaction mix. In order to avoid tip clogging, wide bore tips are used to dispense the resin suspension. Three cycles of mixing are done immediately after the addition of the resin. Another mixing cycle is performed after all the plates are stopped, this time using normal tips: the plates are then allowed to rest for about one hour in order to allow resin sedimentation. At this point, 27 μL of the supernatant are transferred into 384-Optiplates (Perkin-Elmer), with 50 μL of Microscint 40 (Perkin-Elmer); after 5 min of orbital shaking the plates are read on a Perkin-Elmer Top Count radioactivity counter. […]

[1] = test system: JAK2 dependent human megakaryoblastic leukemia cell line SET-2; assay: Cell proliferation assay (CellTiter-Glo, 72 hours); format: cell-based; settings: Homo sapiens, SET-2 cells
Experimental: The JAK2 dependent human megakaryoblastic leukemia cell line SET-2 (DSMZ, Braunschweig GERMANY) and the JAK2 independent human chronic myelogenous leukaemia cell line K562 (ECACC, Wiltshire, UK) were cultured in RPMI-1640 medium-Glutamax (Gibco BRL, Gaithesburg, Md., USA), supplemented with 10% fetal bovine serum (FBS) at 37° C. and 5% CO2.
Cell Proliferation Assay:
Approximately 5×10^3 cells were plated into 384 microtiter plate wells in 50 μL of growth media with different concentrations of inhibitors. The cells were incubated at 37° C. and 5% CO2 for 72 hours, then the plates were processed using CellTiter-Glo assay (Promega, Madison, Wis., USA) following the manufacturer's instruction. Briefly 25 μL/well reagent solution is added to each well and after 5 minutes shaking the micro-plates are read by Envision luminometer (PerkinElmer, Waltham, Mass., USA).
Data are analyzed by Symix Assay Explorer software (Symix Technologies Inc.) that provides sigmoidal fitting algorithm of the 8 points dilutions curves for IC50 determination.

T1 sequence (O60674 849-1124 limits assumed): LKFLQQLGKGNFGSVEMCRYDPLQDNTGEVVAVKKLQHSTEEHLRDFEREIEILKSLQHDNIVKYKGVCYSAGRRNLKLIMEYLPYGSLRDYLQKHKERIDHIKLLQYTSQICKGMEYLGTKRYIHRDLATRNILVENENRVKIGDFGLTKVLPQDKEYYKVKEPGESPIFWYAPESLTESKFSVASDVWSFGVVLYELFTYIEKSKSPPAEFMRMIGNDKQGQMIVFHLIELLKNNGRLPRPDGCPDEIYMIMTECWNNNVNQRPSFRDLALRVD

Compound	IC50 (JAK2 kinase domain) [nM]	IC50 [1] [nM]
Cc1ccc(Cl)cc1-c1[nH]c(-c2nc(N)ncc2C#Cc2ccccc2)cc1C(N)=O [compound 1, 5-[2-Amino-5-(phenylethynyl)pyrimidin-4-yl]-2-(5-chloro-2-methylphenyl)-1H-pyrrole-3-carboxamide]	2	300
Cc1ccc(Cl)cc1-c1[nH]c(-c2nc(N)ncc2C#Cc2cccc(NC3CCN(C)CC3)c2)cc1C(N)=O [compound 12, 5-[2-Amino-5-({3-[(1-methylpiperidin-4-yl)amino]phenyl}ethynyl)pyrimidin-4-yl]-2-(5-chloro-2-methylphenyl)-1H-pyrrole-3-carboxamide]	1	500
Cc1ccc(Cl)cc1-c1[nH]c(-c2nc(N)ncc2C#Cc2ccc(N3CCC(N4CCCC4)CC3)cc2)cc1C(N)=O [compound 26, 5-[2-Amino-5-({4-[4-(pyrrolidin-1-yl)piperidin-1-yl]phenyl}ethynyl)pyrimidin-4-yl]-2-(5-chloro-2-methylphenyl)-1H-pyrrole-3-carboxamide]	1	290
Cc1ccc(Cl)cc1-c1[nH]c(-c2nc(N)ncc2C#Cc2ccc(N3CCC[C@H]3CN3CCCC3)cc2)cc1C(N)=O [compound 31, 5-[2-Amino-5-({4-[(2S)-2-(pyrrolidin-1-ylmethyl)pyrrolidin-1-yl]phenyl}ethynyl)pyrimidin-4-yl]-2-(5-chloro-2-methylphenyl)-1H-pyrrole-3-carboxamide]	1	310
Cc1ccc(Cl)cc1-c1[nH]c(-c2nc(N)ncc2C#Cc2cccnc2)cc1C(N)=O [compound 53, 5-[2-Amino-5-(pyridin-3-ylethynyl)pyrimidin-4-yl]-2-(5-chloro-2-methylphenyl)-1H-pyrrole-3-carboxamide]	2	110
Cc1ccc(Cl)cc1-c1[nH]c(-c2nc(N)ncc2C#CC(C)(C)O)cc1C(N)=O [compound 54, 5-[2-Amino-5-(3-hydroxy-3-methylbut-1-yn-1-yl)pyrimidin-4-yl]-2-(5-chloro-2-methylphenyl)-1H-pyrrole-3-carboxamide]	16	780

Other lines, results leading:

IC50 (JAK2 kinase domain) [nM]	IC50 [1] [nM]	Compound
5	750	COc1ccccc1C#Cc1cnc(N)nc1-c1cc(C(N)=O)c(-c2cc(Cl)ccc2C)[nH]1 [compound 5, 5-{2-Amino-5-[(2-methoxyphenyl)ethynyl]pyrimidin-4-yl}-2-(5-chloro-2-methylphenyl)-1H-pyrrole-3-carboxamide]
2	570	Cc1ccc(Cl)cc1-c1[nH]c(-c2nc(N)ncc2C#CC2CC2)cc1C(N)=O [compound 38, 5-[2-Amino-5-(cyclopropylethynyl)pyrimidin-4-yl]-2-(5-chloro-2-methylphenyl)-1H-pyrrole-3-carboxamide]
85	2480	Cc1ccc(Cl)cc1-c1[nH]c(-c2nc(N)ncc2C#Cc2ccc(Br)cc2)cc1C(N)=O [compound 40, 5-{2-Amino-5-[(4-bromophenyl)ethynyl]pyrimidin-4-yl}-2-(5-chloro-2-methylphenyl)-1H-pyrrole-3-carboxamide]
13	960	Cc1ccc(Cl)cc1-c1[nH]c(-c2nc(N)ncc2C#Cc2ccccc2NCCO)cc1C(N)=O [compound 43, 5-[2-Amino-5-({2-[(2-hydroxyethyl)amino]phenyl}ethynyl)pyrimidin-4-yl]-2-(5-chloro-2-methylphenyl)-1H-pyrrole-3-carboxamide]
11	460	Cc1ccc(Cl)cc1-c1[nH]c(-c2nc(N)ncc2C#CCN(C)C)cc1C(N)=O [compound 44, 5-{2-Amino-5-[3-(dimethylamino)prop-1-yn-1-yl]pyrimidin-4-yl}-2-(5-chloro-2-methylphenyl)-1H-pyrrole-3-carboxamide]
10	560	Cc1ccc(Cl)cc1-c1[nH]c(-c2nc(N)ncc2C#Cc2ccccc2NCCN(C)C)cc1C(N)=O [compound 45, 5-{2-Amino-5-[(2-{[2-(dimethylamino)ethyl]amino}phenyl)ethynyl]pyrimidin-4-yl}-2-(5-chloro-2-methylphenyl)-1H-pyrrole-3-carboxamide]
1	80	Cc1ccc(Cl)cc1-c1[nH]c(-c2nc(N)ncc2C#Cc2ccc(CN3CCN(C)CC3)cc2)cc1C(N)=O [compound 65, 5-[2-Amino-5-({4-[(4-methylpiperazin-1-yl)methyl]phenyl}ethynyl)pyrimidin-4-yl]-2-(5-chloro-2-methylphenyl)-1H-pyrrole-3-carboxamide]
6	780	Cc1ccc(Cl)cc1-c1[nH]c(-c2ccnc(N)n2)c(C#Cc2cccc(NC3CCN(C)CC3)c2)c1C(N)=O [compound 80, 5-(2-Aminopyrimidin-4-yl)-2-(5-chloro-2-methylphenyl)-4-({3-[(1-methylpiperidin-4-yl)amino]phenyl}ethynyl)-1H-pyrrole-3-carboxamide]
